Results taken from patent EP4553077A1 (Kinoteck Therapeutics Co., Ltd, priority 2022, dated 2024).

Key:
[1] = target: Ba/F3-TEL-FGFR3 (Homo sapiens, UniProt P22607+P41212); assay: Cell viability (proliferation inhibition) of Ba/F3 cells, CellTiter Glo; conditions: read-out: Ba/F3 cell FGFR3 (IC50 nM), 72 h
[2] = target: Ba/F3-TEL-FGFR1 (Homo sapiens, UniProt P11362+P41212); assay: as above; conditions: read-out: Ba/F3 cell FGFR1 (IC50 nM), 72 h
[3] = target: Ba/F3-TEL-FGFR2 (Homo sapiens, UniProt P21802+P41212); assay: as above; conditions: read-out: Ba/F3 cell FGFR2 (IC50 nM), 72 h
[4] = Pharmacokinetic test in rats; assay type: in vivo, male SD rats; conditions: rat, plasma, oral gavage administration, 10 mg/kg
Procedure: Rat pharmacokinetic experiments were performed using male SD rats, 180-220g, provided by Beijing Vital River Laboratory Animal Technology Co., Ltd. 3 rats that were fasted overnight were taken, and administered orally by gavage (10 mg/kg). Blood samples were collected before administration, as well as 5, 15, 30 min and 1, 2, 4, 6, 8, 24 h after administration; another 3 rats were taken and administered intravenously (1 mg/kg), blood samples were collected before administration, as well as 5, 15, 30 min and 1, 2, 4, 6, 8, 24 h after administration. Blood sample was centrifuged at 6800g, 2-8 °C for 6 min, and plasma was collected, and stored at -80 °C. Plasma of each time point was taken, 10 times the amount of 50% methanol acetonitrile solution containing internal standard was added, and mixed by vortex for 5 min, centrifuged at 18000 rpm at 4 °C for 10 min, and the supernatant was taken directly for LC-MS/MS analysis. The main pharmacokinetic parameters were analyzed using WinNonlin8.2 software for non compartmental model analysis. Table 3: pharmacokinetic test in rats results of test compounds

[5] = tested on: A204 cells; assay: Proliferation inhibition, CCK-8 colorimetric method; assay type: cell-based; conditions: 72 h
Procedure: (§1) CCK-8 (Bimake/B34304) colorimetric method was used to detect the in vitro proliferation inhibitory effect of compounds on suspended or adherent cells in this experiment. The specific experimental steps were as follows: • 1) Cell plating: SNU16 and A204 tumor cells (cells from Shanghai Institute of Organic Chemistry, Chinese Academy of Sciences) in the logarithmic growth phase were digested and centrifuged for trypan blue counting, and the cells were seeded into a transparent 96 well plate at a density of 4000 cells/100 µ 1/well. […] The test compound and control compound stock solution were diluted with the corresponding culture medium required for cell culture (with or without solvent DMSO) to obtain a series of working solutions, with concentrations of twice the final concentration. The solvent DMSO contents in each concentration group were consistent with that of the solvent control group. The final concentration of A204 cells started at 10 µM and was diluted twice.
(§2) Calculation of cell survival rate: Cell survival rate (%)=[(As-Ac)/(Ab-Ac)] × 100%] (As: experimental well; Ab: Solvent control well; Ac: Blank well).

[6] = tested on: SNU16 cells; assay: as above; assay type: cell-based
Procedure: as §1, §2

Ba/F3-TEL-FGFR1, sequence (P11362 478-767 limits assumed, one chain of several): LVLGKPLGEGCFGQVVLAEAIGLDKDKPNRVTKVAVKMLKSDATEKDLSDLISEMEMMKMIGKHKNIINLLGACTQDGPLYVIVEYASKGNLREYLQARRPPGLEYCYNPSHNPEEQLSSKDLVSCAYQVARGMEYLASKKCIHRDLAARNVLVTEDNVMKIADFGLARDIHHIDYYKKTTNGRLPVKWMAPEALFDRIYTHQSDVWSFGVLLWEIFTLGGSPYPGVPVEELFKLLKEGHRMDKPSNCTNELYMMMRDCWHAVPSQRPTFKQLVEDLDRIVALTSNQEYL
Ba/F3-TEL-FGFR2, sequence (P21802 481-770 limits assumed, one chain of several): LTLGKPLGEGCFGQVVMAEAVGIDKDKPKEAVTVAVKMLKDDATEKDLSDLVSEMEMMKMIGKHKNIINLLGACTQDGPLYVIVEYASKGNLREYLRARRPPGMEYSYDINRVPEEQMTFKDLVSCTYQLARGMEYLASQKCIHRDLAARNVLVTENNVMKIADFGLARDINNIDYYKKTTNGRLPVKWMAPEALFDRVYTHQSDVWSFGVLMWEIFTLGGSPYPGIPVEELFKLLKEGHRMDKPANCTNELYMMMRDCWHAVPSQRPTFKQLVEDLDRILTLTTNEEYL
Ba/F3-TEL-FGFR3, sequence (P22607 472-761 limits assumed, one chain of several): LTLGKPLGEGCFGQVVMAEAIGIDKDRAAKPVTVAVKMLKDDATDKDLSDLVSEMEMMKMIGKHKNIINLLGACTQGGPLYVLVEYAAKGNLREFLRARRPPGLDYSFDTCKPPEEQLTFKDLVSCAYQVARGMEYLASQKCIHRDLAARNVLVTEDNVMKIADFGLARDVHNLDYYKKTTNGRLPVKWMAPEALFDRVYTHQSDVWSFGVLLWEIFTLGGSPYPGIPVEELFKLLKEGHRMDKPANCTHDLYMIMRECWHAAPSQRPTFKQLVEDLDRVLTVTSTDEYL

| Molecule | IC50 [1] [nM] | IC50 [2] [nM] | IC50 [3] [nM] | IC50 ([5]; Homo sapiens) [nM] | IC50 ([6]; Homo sapiens, SNU-16, 72 h) [nM] | further results |
| --- | --- | --- | --- | --- | --- | --- |
| C=C(C)C(=O)Nc1ccc(-c2c(-c3ccc(N=S4(=O)CCCCC4)c(F)c3)c3c(N)ncnc3n2C)c(F)c1 [Compound 7] | 545 | 627 | 2.4 |  |  |  |
| C=C(C)C(=O)Nc1ccc(-c2c(-c3ccc(N=S4(=O)CCC4)cc3)c3c(N)ncnc3n2C)c(F)c1 [Compound 8] |  | 600 | 0.7 | 618 | 1.34 | AUC(0-t) [4]: 630 ng·h/mL; Cmax [4]: 352 ng/mL; Tmax [4]: 15 min; half-life [4]: 109 min |
| C=C(C)C(=O)Nc1ccc(-c2c(-c3ccc(N=S4(=O)CCCC4)c(F)c3)c3c(N)ncnc3n2C)c(C)c1 [Compound 22, N-(4-(4-amino-5-(3-fluoro-4-((1-oxotetrahydro-1 λ^6-thiophene-1-ylidene)amino)phenyl) -7-methyl-7H-pyrrolo [2,3-d]pyrimidin-6-yl) -3-methylphenyl) methacrylamide] |  | 717 | 2.7 | 1610 | 4.97 |  |
| C=C(C)C(=O)Nc1ccc(-c2c(-c3ccc(N=S4(=O)CCCC4)c(F)c3)c3c(N)ncnc3n2C)c(C#N)c1 [Compound 26, N-(4-(4-amino-5-(3-fluoro-4-((1-oxotetrahydro-1 λ^6-thiophene-1-ylidene)amino)phenyl) -7-methyl-7H-pyrrolo [2,3-d]pyrimidin-6-yl) -3-cyanophenyl) methacrylamide] | 110 |  | 4.5 | 285 | 3.36 |  |
| C=C(C)C(=O)Nc1ccc(-c2c(-c3ccc(N=S(=O)(N(C)C)C(F)(F)F)c(F)c3)c3c(N)ncnc3n2C)cc1 (stereo not shown) [Compound 48] | 577 | 625 | 0.9 |  |  | AUC(0-t) [4]: 883 ng·h/mL; Cmax [4]: 212 ng/mL; Tmax [4]: 49.8 min; half-life [4]: 206 min |
| C=C(F)C(=O)Nc1ccc(-c2c(-c3ccc(N=S4(=O)CCCCC4)cc3)c3c(N)ncnc3n2C)cc1 [Compound 68, N-(4-(4-amino-7-methyl-5-(4-((1-oxotetrahydro-2H-1 λ^6-thiopyran-1-ylidene)amino)phenyl)-7H-pyrrolo[2,3-d]pyrimidin-6-yl)phenyl)-2-fluoroacrylamide] |  |  | 0.5 | 267 | 1.65 |  |
| C=C(C)C(=O)Nc1ccc(-c2c(-c3ccc(N=S4(=O)CCC4)c(F)c3)c3c(N)ncnc3n2C)c(Cl)c1 [Compound 74, N-(4-(4-amino-5-(3-fluoro-4-(1-oxo-1λ^6-thietan-1-imino)phenyl) -7-methyl-7H-pyrrolo[2,3-d]pyrimidin-6-yl)-3-chlorophenyl)methacrylamide] |  | 300 | 0.5 | 595 | 1.19 |  |
| C=C(C)C(=O)Nc1ccc(-c2c(-c3ccc(N=S4(=O)CCCC4)c(Cl)c3)c3c(N)ncnc3n2C)c(F)c1 [Compound 88, N-(4-(4-amino-5-(3-chloro-4-((1-oxidetetrahydro-1 λ^6-thiophene-1-ylidene)amino)phenyl) -7-methyl-7H-pyrrolo [2,3-d]pyrimidin-6-yl) -3-fluorophenyl) methacrylamide] | 216 | 561 | 1.5 |  |  |  |
| [2H]C([2H])([2H])n1c(-c2cc(C)c(NC(=O)C(=C)C)cc2Cl)c(-c2ccc(N=S3(=O)CCCC3)c(F)c2)c2c(N)ncnc21 [Compound 90, N-(4-(4-amino-5-(3-fluoro-4-((1-tetrahydro-1λ^6-thiophene-1-ylidene)amino)phenyl) -7-(methyl-d3) -7H-pyrrolo [2,3-d]pyrimidin-6-yl) -5-chloro-2-methylphenyl) methacrylamide] | 174 |  | 3.6 |  |  |  |
| [2H]C([2H])([2H])n1c(-c2ccc(NC(=O)C(=C)C)cc2F)c(-c2ccc(N=S3(=O)CCCC3)c(F)c2)c2c(N)ncnc21 [Compound 94] | 205 | 625 | 1.1 |  |  |  |
| [2H]C([2H])([2H])n1c(-c2ccc(NC(=O)C(=C)C)cc2F)c(-c2ccc(N=S3(=O)CCC3)c(F)c2)c2c(N)ncnc21 [Compound 97, N-(4-(4-amino-5-(3-fluoro-4-((1-oxo-1 λ^6-thiophene-1-ylidene)amino)phenyl) -7-(methyl-d3) -7H-pyrrole [2,3-d]pyrimidin-6-yl) -3-fluorophenyl) methacrylamide] |  | 480 | 1.9 | 764 | 2.66 |  |
| [2H]C([2H])([2H])n1c(-c2ccc(NC(=O)C(=C)C)cc2F)c(-c2ccc(N=S3(=O)C=CC=C3)cc2)c2c(N)ncnc21 [Compound 98, N-(4-(4-amino-7-(methyl-d3) -5-(4-((1-oxo-1 λ^6-thiophene-1-ylidene)amino)phenyl) -7H-pyrrolo [2,3-d]pyrimidin-6-yl) -3-fluorophenyl) methacrylamide] |  | 416 | 0.6 | 845 | 1.81 |  |
| C=C(C)C(=O)Nc1ccc(-c2c(-c3ccc(N=S(=O)(CC)CC)c(F)c3)c3c(N)ncnc3n2C)c(F)c1 [Compound 100] | 414 | 823 | 1.9 |  |  |  |
| C=C(C)C(=O)Nc1ccc(-c2c(-c3ccc(N=S(=O)(CC)CC)cc3)c3c(N)ncnc3n2C)c(Cl)c1 [Compound 102] |  |  | 0.6 | 502 | 2.63 |  |
| C=C(C)C(=O)Nc1ccc(-c2c(-c3ccc(N=S4(=O)CCC4)c(Cl)c3)c3c(N)ncnc3n2C)c(F)c1 [Compound 104] |  | 640 | 0.9 | 1020 | 5.51 |  |
| [2H]C([2H])([2H])n1c(-c2ccc(NC(=O)C(=C)C)cc2F)c(-c2ccc(N=S(=O)(CC)CC)cc2)c2c(N)ncnc21 [Compound 109] |  |  | 4.5 | 1040 | 9.38 |  |
| C=C(C)C(=O)Nc1ccc(-c2c(-c3ccc(Oc4nccc(C)n4)c(F)c3)c3c(N)ncnc3n2C)cc1 [Control compound I, reference compound] |  |  |  | 3220 | 13.2 | AUC(0-t) ([4]; male, SD): 606 ng·h/mL; Cmax ([4]; male, SD): 141 ng/mL; Tmax ([4]; male, SD): 40.2 min; half-life ([4]; male, SD): 51 min |
| N-(4-(4-amino-7-methyl-5-(4-(1-oxotetrahydro-2H-1λ^6-thiopyran-1- imino) phenyl) -7H-pyrrolo [2,3-d] pyrimidin-6-yl) -3-fluorophenyl) methacrylamide [Compound 1] | 869 | 656 | 2.3 |  |  | IC50 [5]: 1310 nM; IC50 ([6]; 72 h): 5.57 nM |
